Consider four molecules from patent US11186603B2, “Heparan sulfate glycomimetic compounds and their pharmaceutical and cosmeceutical uses” (VICTORIA LINK LIMITED, priority 2017, dated 2021).

Experiment [1] concerns human dermal fibroblast cell line, CRL2071. Put plainly: Production of collagen type I (ELISA). In kind it is cell-based. To be noted: 72 h. On the procedure: Cells from the human dermal fibroblast cell line, CRL2071 (passages 12-14), obtained from normal breast skin of a person, were allowed to attach for 6-8 hours before the addition of the test compounds. After 72 h of exposure to the test articles the media was removed, cells counted and the cell-associated fraction extracted. The media and cell-associated fraction were analysed for the concentration of collagen type I using a Chondrex Human type I Collagen Detection Kit ELISA (Cat #6021).
After complete dissolution the solutions were sterile filtered through a […] syringe filter and kept at 4° C. until use. Prior to each experiment dilutions were freshly prepared by diluting to 100 nM, 1 μM or 10 μM in cell-specific media.
(§1) The test compounds, positive controls and no treatment media were added to the flasks (2.5 ml/flask) and cells were incubated for 72 h before removal of the supernatant. After removal of the supernatant, cell monolayers were trypsinsed with 2.5 ml of 0.025% trypsin/[…] in PBS to each flask. After cell detachment (7-10 min), 1 ml of the cell/trypsin mixture was added to a 20 ml counting vial containing 9 ml of normal saline. The cells were quantitated with a Coulter Counter Z2.
In some treatments cells were found floating. They were collected, counted and subjected to viability testing using 1% trypan blue staining. The remaining 1.5 ml of trypsin/cell mixture was sonicated with a Branson tip-probed sonicator for 1 min, setting 6 before centrifugation at 10,000 rpm for 10 min. The supernatant was removed and used in the collagen ELISA for the quantitation of cell-associated collagen.
A general note: An ELISA detects its analyte on a solid surface through an enzyme-linked reagent.

Experiment [2] has the same test system. Put plainly: Production of hyaluronan (ELISA). In kind it is cell-based. To be noted: 72 h; for ng Hyaluronan/1 × 10^6 cells (Mean ± SD): liberated hyaluronan (>6400Da); for Hyaluronan as % of No Treatment Control (Mean ± SD): liberated. The procedure:
Cells from the human dermal fibroblast cell line, CRL2071 (passages 12-14), obtained from normal breast skin of a person, were allowed to attach for 6-8 hours before the addition of the test compounds. After 72 h of exposure to the test articles the media was removed, cells counted and the cell-associated fraction extracted. The media and cell-associated fraction were analysed for the concentration of hyaluronan using a Hyaluronan Detection Kit ELISA.
as §1
In some treatments cells were found floating. They were collected, counted and subjected to viability testing using 1% trypan blue staining. The remaining 1.5 ml of trypsin/cell mixture was sonicated with a Branson tip-probed sonicator for 1 min, setting 6 before centrifugation at 10,000 rpm for 10 min. The supernatant was removed and used in the hyaluronan ELISA for the quantitation of cell-associated hyaluronan.

Regarding `C=C[C@@](C)(/C=C/c1ccc(O)cc1)CCC=C(C)C` [Bakuchiol, reference compound], in experiment [1] (5 μg/ml), the “Collagen as % of No Treatment Control (Mean ± SD), Cell-associated” value was 1,085 ± 60%; the “μg collagen (Mean ± SD), Cell-Associated Collagen Type 1” value was 0.28 ± 0.02 µg; the “Collagen as % of No Treatment Control (Mean ± SD), Liberated” value is on record as 43 ± 17%; the “μg collagen (Mean ± SD), Liberated Collagen Type 1” value came to 0.02 ± 0.01 µg. In experiment [1] (10 μg/ml), the “Collagen as % of No Treatment Control (Mean ± SD), Cell-associated” value is recorded as 600 ± 348%; the “μg collagen (Mean ± SD), Cell-Associated Collagen Type 1” value was 0.29 ± 0.01 µg; the “Collagen as % of No Treatment Control (Mean ± SD), Liberated” value is 357 ± 20%; the “μg collagen (Mean ± SD), Liberated Collagen Type 1” value was 0.15 ± 0.01 µg.

Take `CC1=C(/C=C/C(C)=C/C=C/C(C)=C/CO)C(C)(C)CCC1` [Retinol, reference compound]: in experiment [2] (5 μg/ml), the “ng Hyaluronan/1 × 10^6 cells (Mean ± SD)” value is 576 ± 0 ng Hyaluronan/1 × 10^6 cells and the “Hyaluronan as % of No Treatment Control (Mean ± SD)” value is 1,346 ± 0%.

Consider “TGF-β1: Transforming growth Factor β1, Sigma Aldrich, positive control”, for which, in experiment [1] (20 ng/ml), the “Collagen as % of No Treatment Control (Mean ± SD), Cell-associated” value was determined as 719 ± 57%; the “μg collagen (Mean ± SD), Cell-Associated Collagen Type 1” value is 0.31 ± 0.02 µg; the “Collagen as % of No Treatment Control (Mean ± SD), Liberated” value was 2,852 ± 285%; the “μg collagen (Mean ± SD), Liberated Collagen Type 1” value amounted to 1.23 ± 0.12 µg. For the same molecule, in experiment [2] (20 ng/ml), the “ng Hyaluronan/1 × 10^6 cells (Mean ± SD)” value is 507 ± 68 ng Hyaluronan/1 × 10^6 cells and the “Hyaluronan as % of No Treatment Control (Mean ± SD)” value is given as 1,186 ± 159%.

B1: TGF-β2: Transforming growth Factor β2, Sigma Aldrich, positive control (protein, UniProt P61812 303-414, looked up)
Transforming growth factor …: ALDAAYCFRNVQDNCCLRPLYIDFKRDLGWKWIHEPKGYNANFCAGACPYLWSSDTQHSRVLSLYNTINPEASASPCCVSQDLEPLTILYYIGKTPKIEQLSNMIVKSCKCS
Take B1: in experiment [1] (20 ng/ml), the “Collagen as % of No Treatment Control (Mean ± SD), Cell-associated” value stood at 77 ± 9%; the “μg collagen (Mean ± SD), Cell-Associated Collagen Type 1” value came to 0.03 ± 0.00 µg; the “Collagen as % of No Treatment Control (Mean ± SD), Liberated” value is given as 446 ± 73%; the “μg collagen (Mean ± SD), Liberated Collagen Type 1” value worked out at 0.19 ± 0.03 µg.
